# Measured values published in paper PMC9012467 (Science Advances, 2022).
# Columns and labels:
# PPPDE1 = PPPDE1 (Homo sapiens, UniProt Q9BSY9); assay: fluorogenic assay coupled to beta-glucosidase; assay type: biochemical; conditions: 10 μM substrate, 20 μg beta-glucosidase, pH 5.0, 37°C
# PPPDE2 = target: T1, PPPDE2 (Homo sapiens, UniProt Q6ICB0); assay: fluorogenic assay coupled to beta-glucosidase; assay type: biochemical; conditions: 10 μM substrate, 20 μg beta-glucosidase, pH 5.0, 37°C
# T1 sequence (Q6ICB0 1-168): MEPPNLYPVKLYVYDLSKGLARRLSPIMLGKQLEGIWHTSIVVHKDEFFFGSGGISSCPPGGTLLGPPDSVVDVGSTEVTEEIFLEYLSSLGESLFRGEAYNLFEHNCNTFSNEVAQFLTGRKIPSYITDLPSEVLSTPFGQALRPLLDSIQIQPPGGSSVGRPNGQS
# Sequence of PPPDE1 (Q9BSY9 whole entry): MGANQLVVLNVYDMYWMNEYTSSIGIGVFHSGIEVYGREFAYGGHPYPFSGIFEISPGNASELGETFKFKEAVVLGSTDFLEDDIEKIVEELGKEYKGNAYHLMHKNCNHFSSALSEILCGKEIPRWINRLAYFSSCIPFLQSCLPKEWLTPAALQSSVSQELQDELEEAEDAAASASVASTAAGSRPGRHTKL
smiles,measurement,setting,value
"CCCCCCCCCCCCCCCC(=O)SC[C@H]1O[C@@H](Oc2ccc3c(C)cc(=O)oc3c2)[C@H](O)[C@@H](O)[C@@H]1O [MU-6S-palm-βGlc, 4-methylumbelliferyl 6-thio-palmitate-β-D-glucopyranoside]",fluorogenic assay coupled to beta-glucosidase,PPPDE1,both showed high S-depalmitoylation activity by assaying DPP-5 or MU-6S-palm-βGlc
same,fluorogenic assay coupled to beta-glucosidase,PPPDE2,both showed high S-depalmitoylation activity by assaying DPP-5 or MU-6S-palm-βGlc
